Some test systems named below: MALME-3M melanoma; NCI-H226 lung; KM12 colon; HOP-92 NSCLC; T-47D breast; OVCAR-3 ovarian; SN12C renal; MDA-MB-231 breast; UO-31 renal; U251 CNS.
What all share (experiment): NCI anticancer screen, dose series, 48 h

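Values below derive from 48-hour exposures of cells grown in 96-well plates, with endpoints linearly interpolated between the two concentrations bracketing the appropriate inhibition level. Abbreviation: GI50, concentration required for 50% inhibition of growth. Definition used: TGI = concentration required for complete inhibition of growth.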

Take `COc1ccc(-c2c(Nc3ccccn3)nc3c(C4=CCCCC4)c(-c4ccccc4)[nH]n3c2=O)cc1`: the GI50 in the assay with MALME-3M melanoma is 3.93 µM; with NCI-H226 lung, 2.78 µM; with KM12 colon, 3.7 µM; in the assay on HOP-92 NSCLC, 1.45 µM; in the assay with T-47D breast, 2.22 µM; with OVCAR-3 ovarian, 1.94 µM. Also, the GI50 in the assay on SN12C renal was 2.7 µM; in the assay on MDA-MB-231 breast it was 2.73 µM; in the assay with UO-31 renal, 2.19 µM; in the assay with U251 CNS it was 1.95 µM. Moreover, the TGI in the assay on MALME-3M melanoma was 60.2 µM; in the assay with NCI-H226 lung, 17.8 µM; in the assay on KM12 colon, greater than 100 µM; in the assay with HOP-92 NSCLC it was 9.26 µM; with T-47D breast, 17.3 µM; with OVCAR-3 ovarian, greater than 100 µM. In addition, the TGI in the assay with SN12C renal was greater than 100 µM; in the assay with MDA-MB-231 breast, 16.5 µM; in the assay with UO-31 renal it was greater than 100 µM; with U251 CNS it was 17.9 µM.

Consider `O=S(=O)(O)C(c1ccccc1)C(O)c1ccccc1` (stereo not given), for which the TGI in the assay on MALME-3M melanoma, with NCI-H226 lung, in the assay with KM12 colon, in the assay with HOP-92 NSCLC, in the assay with T-47D breast and in the assay with OVCAR-3 ovarian was greater than 100 µM each time. The TGI with SN12C renal, in the assay on MDA-MB-231 breast, with UO-31 renal and with U251 CNS was greater than 100 µM each time.

Regarding `O=c1c(Oc2ccc(F)cc2F)cc2cnc(NC3CCOCC3)nc2n1C1CC1`, the GI50 with MALME-3M melanoma was greater than 25 µM; in the assay with NCI-H226 lung it was greater than 22.9 µM; with KM12 colon, greater than 25 µM; with HOP-92 NSCLC, 0.172 µM; with T-47D breast, 19.3 µM; in the assay on OVCAR-3 ovarian it was greater than 25 µM. In addition, the GI50 in the assay with SN12C renal was greater than 25 µM; in the assay on MDA-MB-231 breast, greater than 25 µM; with UO-31 renal, 2.21 µM; with U251 CNS, greater than 25 µM. Besides, the TGI in the assay on MALME-3M melanoma was greater than 25 µM; with NCI-H226 lung, greater than 25 µM; in the assay on KM12 colon, greater than 25 µM; with HOP-92 NSCLC, 10.6 µM; in the assay on T-47D breast it was greater than 25 µM; with OVCAR-3 ovarian, greater than 25 µM. Moreover, the TGI in the assay with SN12C renal was greater than 25 µM; in the assay on MDA-MB-231 breast, greater than 25 µM; with UO-31 renal, 10.2 µM; in the assay on U251 CNS, greater than 25 µM.

For the compound `NS(=O)(=O)c1cc2c(cc1Cl)NCNS2(=O)=O`, the TGI in the assay with MALME-3M melanoma, in the assay with NCI-H226 lung, in the assay on KM12 colon, in the assay on HOP-92 NSCLC, in the assay with T-47D breast and with OVCAR-3 ovarian was greater than 100 µM throughout. Moreover, the TGI in the assay with SN12C renal, in the assay with MDA-MB-231 breast, in the assay on UO-31 renal and in the assay with U251 CNS was greater than 100 µM in each case.

In the case of `COc1cc2c3c(n(CCCN)c(=O)c2cc1OC)-c1ccc(N)cc1C3=O`, the GI50 is 5.85 µM in the assay on MALME-3M melanoma; 2.85 µM in the assay on NCI-H226 lung; 9.26 µM in the assay with KM12 colon; 2.3 µM with HOP-92 NSCLC; 0.842 µM in the assay with T-47D breast; 2.12 µM with OVCAR-3 ovarian. For the same compound, the GI50 with SN12C renal is 2.98 µM; with MDA-MB-231 breast, 3.09 µM; with UO-31 renal, 37.2 µM; with U251 CNS, 0.575 µM. Moreover, the TGI with MALME-3M melanoma was 26.4 µM; in the assay on NCI-H226 lung, 14.5 µM; in the assay on KM12 colon it was greater than 74.2 µM; in the assay with HOP-92 NSCLC, 15.3 µM; in the assay with T-47D breast it was 7.37 µM; in the assay with OVCAR-3 ovarian it was greater than 29.6 µM. For the same compound, the TGI in the assay with SN12C renal is 27.3 µM; in the assay on MDA-MB-231 breast it was 21.2 µM; in the assay on UO-31 renal, greater than 100 µM; in the assay on U251 CNS, 6.84 µM.

Turning to `OCc1ccc(N2CCc3ccc(F)cc3C2)cc1Cl`, the GI50 in the assay with MALME-3M melanoma was 12.1 µM; in the assay with NCI-H226 lung it was 0.0267 µM; in the assay with KM12 colon it was 10.5 µM; with HOP-92 NSCLC, 0.146 µM; with T-47D breast it was 0.101 µM; with OVCAR-3 ovarian, 0.0605 µM. The GI50 was 8.22 µM in the assay on SN12C renal, 11.7 µM in the assay with MDA-MB-231 breast, 1.52 µM in the assay with UO-31 renal and 0.124 µM in the assay on U251 CNS. Further, the TGI in the assay with MALME-3M melanoma is 26.9 µM; in the assay on NCI-H226 lung, 0.114 µM; in the assay on KM12 colon, 26 µM; with HOP-92 NSCLC, 0.889 µM; with T-47D breast it was 0.499 µM; in the assay on OVCAR-3 ovarian, 0.325 µM. Moreover, the TGI with SN12C renal is 22.9 µM; in the assay with MDA-MB-231 breast, 24.9 µM; in the assay on UO-31 renal, 17.3 µM; with U251 CNS, 8.57 µM.

`N#CC1=C(N)Oc2c(ccc3ccccc23)C1c1cc2ccccc2n2nnnc12` (stereo not given): the GI50 with MALME-3M melanoma is 0.852 µM; in the assay on NCI-H226 lung it was 3.08 µM; in the assay on KM12 colon, 0.628 µM; in the assay with HOP-92 NSCLC, 0.49 µM; with T-47D breast, 1.83 µM; with OVCAR-3 ovarian it was 0.44 µM. For the same compound, the GI50 with SN12C renal is 0.99 µM; in the assay on MDA-MB-231 breast, 0.976 µM; with UO-31 renal it was 0.725 µM; in the assay with U251 CNS, 0.748 µM. Moreover, the TGI was greater than 100 µM in the assay with MALME-3M melanoma; greater than 100 µM in the assay on NCI-H226 lung; greater than 100 µM in the assay on KM12 colon; 7.47 µM in the assay on HOP-92 NSCLC; greater than 100 µM with T-47D breast; 3.36 µM with OVCAR-3 ovarian. In addition, the TGI with SN12C renal, with MDA-MB-231 breast, in the assay with UO-31 renal and in the assay with U251 CNS was greater than 100 µM each time.

Regarding `CNCc1cccc2c1OCCOCCOCCNS(=O)(=O)c1ccc(cc1)-c1cnc(N)c(n1)C(=O)N2`, the GI50 was 1.55 µM in the assay on MALME-3M melanoma; 2.21 µM in the assay on NCI-H226 lung; 1.22 µM in the assay with KM12 colon; 3.05 µM in the assay with HOP-92 NSCLC; 2.05 µM in the assay on T-47D breast; 1.12 µM in the assay with OVCAR-3 ovarian. For the same compound, the GI50 in the assay with SN12C renal is 1.22 µM; in the assay on MDA-MB-231 breast it was 1.38 µM; in the assay on UO-31 renal it was 9.82 µM; in the assay on U251 CNS, 0.772 µM. Also, the TGI is 3.08 µM in the assay with MALME-3M melanoma; 8.09 µM in the assay with NCI-H226 lung; 2.98 µM with KM12 colon; 14.7 µM in the assay on HOP-92 NSCLC; 5.46 µM in the assay on T-47D breast; 2.61 µM with OVCAR-3 ovarian. The TGI in the assay on SN12C renal stood at 3.79 µM; with MDA-MB-231 breast, 3.61 µM; with UO-31 renal, 23.1 µM; with U251 CNS, 2.23 µM.

Source of the values: PubChem BioAssay (NCI).
